In patent US20250049033A1, “PESTICIDALLY ACTIVE PYRIDAZINONE COMPOUNDS” (SYNGENTA CROP PROTECTION AG, priority 2021, published 2025):

Experiments:
Format in all cases: in vivo
Plutella xylostella = assay: Activity against Plutella xylostella (diamond back moth), artificial diet, eggs; settings: 192 h, application rate 200 ppm, 8 days after infestation, vs untreated, read-out: control in at least one of the two categories (mortality or growth inhibition)
Procedure: Example B7: Activity Against Plutella xylostella (Diamond Back Moth)
24-well microtiter plates with artificial diet were treated with aqueous test solutions prepared from 10′000 ppm DMSO stock solutions by pipetting. After drying, Plutella eggs were pipetted through a plastic stencil onto a gel blotting paper and the plate was closed with it. The samples were assessed for mortality and growth inhibition in comparison to untreated samples 8 days after infestation. The following compounds gave an effect of at least 80% control in at least one of the two categories (mortality or growth inhibition) at an application rate of 200 ppm: P1, P2, P3, P4, P6, P7, P8, P9, P10, P11, P12, P13, P14, P15, P16, P17, P18, P19, P20, P21, P22, P23, P24, P25, P26, P27.

Chilo suppressalis = assay: Activity against Chilo suppressalis (striped rice stemborer), artificial diet, L2 larvae; settings: 144 h, application rate 200 ppm, 6 days after infestation, vs untreated, read-out: control in at least one of the three categories (mortality, anti-feedant effect, or growth inhibition)
Procedure: Example B1: Activity Against Chilo suppressalis (Striped Rice Stemborer)
24-well microtiter plates with artificial diet were treated with aqueous test solutions prepared from 10′000 ppm DMSO stock solutions by pipetting. After drying, the plates were infested with L2 larvae (6-8 per well). The samples were assessed for mortality, anti-feeding effect, and growth inhibition in comparison to untreated samples 6 days after infestation. Control of Chilo suppressalis by a test sample is given when at least one of the categories mortality, anti-feedant effect, and growth inhibition is higher than the untreated sample.

Euschistus heros = assay: Activity against Euschistus heros (neotropical brown stink bug), soybean leaves, N2 nymphs; settings: 120 h, application rate 200 ppm, 5 days after infestation, vs untreated, read-out: effect in at least one of the two categories (mortality or growth inhibition)
Procedure: Example B3: Activity Against Euschistus heros (Neotropical Brown Stink Bug)
Soybean leaves on agar in 24-well microtiter plates were sprayed with aqueous test solutions prepared from 10′000 ppm DMSO stock solutions. After drying the leaves were infested with N2 nymphs. The samples were assessed for mortality and growth inhibition in comparison to untreated samples 5 days after infestation.

Spodoptera littoralis = assay: Activity against Spodoptera littoralis (Egyptian cotton leaf worm), cotton leaf discs, L1 larvae; settings: foliar, 72 h, application rate 200 ppm, 3 days after infestation, vs untreated, read-out: control in at least one of the three categories (mortality, anti-feedant effect, or growth inhibition)
Procedure: Example B8: Activity Against Spodoptera littoralis (Egyptian Cotton Leaf Worm)
Cotton leaf discs were placed onto agar in 24-well microtiter plates and sprayed with aqueous test solutions prepared from 10′000 ppm DMSO stock solutions. After drying the leaf discs were infested with five L1 larvae. The samples were assessed for mortality, anti-feeding effect, and growth inhibition in comparison to untreated samples 3 days after infestation. Control of Spodoptera littoralis by a test sample is given when at least one of the categories mortality, anti-feedant effect, and growth inhibition is higher than the untreated sample.

Myzus persicae = assay: Activity against Myzus persicae (green peach aphid), intrinsic activity; settings: 120 h, test rate 12 ppm, 5 days after infestation, sucrose solution through Parafilm
Source text: Example B6: Activity Against Myzus persicae (Green Peach Aphid). Intrinsic Activity
Test compounds prepared from 10′000 ppm DMSO stock solutions were applied by pipette into 24-well microtiter plates and mixed with sucrose solution. The plates were closed with a stretched Parafilm. A plastic stencil with 24 holes was placed onto the plate and infested pea seedlings were placed directly on the Parafilm. The infested plate was closed with a gel blotting paper and another plastic stencil and then turned upside down. The samples were assessed for mortality 5 days after infestation.

Diabrotica balteata = assay: Activity against Diabrotica balteata (corn root worm), maize sprouts, L2 larvae; settings: 96 h, application rate 200 ppm, 4 days after infestation, vs untreated, read-out: control in at least one of the two categories (mortality or growth inhibition)
Procedure: Example B2: Activity Against Diabrotica balteata (Corn Root Worm)
Maize sprouts placed onto an agar layer in 24-well microtiter plates were treated with aqueous test solutions prepared from 10′000 ppm DMSO stock solutions by spraying. After drying, the plates were infested with L2 larvae (6 to 10 per well). The samples were assessed for mortality and growth inhibition in comparison to untreated samples 4 days after infestation.

C[C@H](Nc1nc(=O)n(C)c2c(Cl)cc(C(F)(F)F)cc12)c1ncnn1-c1ccc(=O)n(C)n1 [P1, 8-chloro-1-methyl-4-[[(1S)-1-[2-(1-methyl-6-oxo-pyridazin-3-yl)-1,2,4-triazol-3-yl]ethyl]amino]-6-(trifluoromethyl)quinazolin-2-one]
≥ 80%: percent control (mortality or growth inhibition) at 200 ppm (Plutella xylostella) | percent control (mortality, anti-feedant effect or growth inhibition) at 200 ppm (Chilo suppressalis) | percent effect (mortality or growth inhibition) at 200 ppm (Euschistus heros)

C[C@H](Nc1ncnc2c(I)cc(Cl)cc12)c1ncnn1-c1ccc(=O)n(C)n1 [P11, 6-[5-[(1S)-1-[(6-chloro-8-iodo-quinazolin-4-yl)-amino]ethyl]-1,2,4-triazol-1-yl]-2-methyl-pyridazin-3-one]
≥ 80%: percent control (mortality or growth inhibition) at 200 ppm (Plutella xylostella) | percent control (mortality, anti-feedant effect or growth inhibition) at 200 ppm (Chilo suppressalis) | percent effect (mortality or growth inhibition) at 200 ppm (Euschistus heros) | percent control (mortality, anti-feedant effect or growth inhibition) at 200 ppm (Spodoptera littoralis) | mortality at 12 ppm (Myzus persicae)

C[C@H](Nc1ncnc2c(Cl)cc(C(F)(F)F)cc12)c1ncnn1-c1ccc(=O)n(C)n1 [P16, 6-[5-[(1S)-1-[[8-chloro-6-(trifluoro-methyl)quinazolin-4-yl]amino]ethyl]-1,2,4-triazol-1-yl]-2-methyl-pyrid-azin-3-one]
≥ 80%: percent control (mortality or growth inhibition) at 200 ppm (Plutella xylostella) | percent control (mortality, anti-feedant effect or growth inhibition) at 200 ppm (Chilo suppressalis) | percent effect (mortality or growth inhibition) at 200 ppm (Euschistus heros) | percent control (mortality, anti-feedant effect or growth inhibition) at 200 ppm (Spodoptera littoralis) | percent control (mortality or growth inhibition) at 200 ppm (Diabrotica balteata) | mortality at 12 ppm (Myzus persicae)

C[C@H](Nc1ncnc2c(Br)cc(Br)cc12)c1ncnn1-c1ccc(=O)n(C)n1 [P18, 6-[5-[(1S)-1-[(6,8-dibromoquinazolin-4-yl)amino]ethyl]-1,2,4-triazol-1-yl]-2-methyl-pyridazin-3-one]
≥ 80%: percent control (mortality or growth inhibition) at 200 ppm (Plutella xylostella)

C[C@@H](c1ncnn1-c1ccc(=O)n(C)n1)N(C)c1ncnc2c(Cl)cc(C(F)(F)F)cc12 [P23, 6-[5-[(1S)-1-[[8-chloro-6-(trifluoro-methyl)quinazolin-4-yl]-methyl-amino]ethyl]-1,2,4-triazol-1-yl]-2-methyl-pyr-idazin-3-one]
≥ 80%: percent control (mortality or growth inhibition) at 200 ppm (Plutella xylostella) | percent control (mortality, anti-feedant effect or growth inhibition) at 200 ppm (Chilo suppressalis) | percent effect (mortality or growth inhibition) at 200 ppm (Euschistus heros) | percent control (mortality, anti-feedant effect or growth inhibition) at 200 ppm (Spodoptera littoralis) | percent control (mortality or growth inhibition) at 200 ppm (Diabrotica balteata) | mortality at 12 ppm (Myzus persicae)

C[C@H](Nc1ncnc2c(I)cc(Cl)cc12)c1ncnn1C1=NN(C)C(=O)CC1 [P25, 6-[5-[(1S)-1-[(6-chloro-8-iodo-quinazolin-4-yl)amino]ethyl]-1,2,4-triazol-1-yl]-2-methyl-4,5-dihydropyridazin-3-one]
≥ 80%: percent control (mortality or growth inhibition) at 200 ppm (Plutella xylostella) | percent control (mortality, anti-feedant effect or growth inhibition) at 200 ppm (Chilo suppressalis) | percent effect (mortality or growth inhibition) at 200 ppm (Euschistus heros) | percent control (mortality, anti-feedant effect or growth inhibition) at 200 ppm (Spodoptera littoralis) | percent control (mortality or growth inhibition) at 200 ppm (Diabrotica balteata) | mortality at 12 ppm (Myzus persicae)

C[C@@H](c1ncnn1C1=NN(C)C(=O)CC1)N(C)c1ncnc2c(I)cc(Cl)cc12 [P26, 6-[5-[(1S)-1-[(6-chloro-8-iodo-quinazolin-4-yl)-methyl-amino]ethyl]-1,2,4-triazol-1-yl]-2-methyl-4,5-dihydropyridazin-3-one]
≥ 80%: percent control (mortality or growth inhibition) at 200 ppm (Plutella xylostella) | percent control (mortality, anti-feedant effect or growth inhibition) at 200 ppm (Chilo suppressalis) | percent effect (mortality or growth inhibition) at 200 ppm (Euschistus heros) | percent control (mortality, anti-feedant effect or growth inhibition) at 200 ppm (Spodoptera littoralis) | percent control (mortality or growth inhibition) at 200 ppm (Diabrotica balteata) | mortality at 12 ppm (Myzus persicae)
